Results on two molecules are retold here after patent US20210221787A1, “NIRAPARIB SOLID STATE FORM” (JOHNSON MATTHEY PUBLIC LIMITED COMPANY, priority 2018, published 2021).

Read-outs that look alike come from different tables or passages of the source.

The conditions of data set [1]: for extended stability (retention of Form A by XRPD): with and without foil bag. An excerpt: “Stabilized” as used herein relates to an anhydrous form of the p-toluenesulfonic acid salt of niraparib that is capable of retaining its form for up to at least 4 months when held in storage in a sealed container with desiccant, with or without being stored in a foiled bag.
XRPD patterns are obtained using a Bruker D8 Advance equipped with a Cu Ka radiation source (λ=1.54 Å), a 9-position sample holder and a LYNXEYE super speed detector. Samples are placed on air sensitive silicon plate holders with zero-background with domes for analysis. One skilled in the art would recognize that the ° 2 θ values and the relative intensity values are generated by performing a peak search on the measured data and the d-spacing values are calculated by the instrument from the ° 2 θ values using Bragg's equation. One skilled in the art would further recognize that the relative intensity for the measured peaks may vary because of sample preparation, orientation and instrument used, for example.

For data set [2] the following is noted: cited from earlier work.

For `Cc1ccc(S(=O)(=O)O)cc1.NC(=O)c1cccc2cn(-c3ccc([C@@H]4CCCNC4)cc3)nc12` [Form A, p-toluenesulfonic acid salt of niraparib], the extended stability result in data set [1] (Form A not made under anhydrous conditions (Examples 1-3), compared with Form A made under anhydrous conditions) was “does not exhibit extended stability”. The “extended stability (retention of Form A by XRPD)” value in data set [1] (made under anhydrous conditions (Example 4 or 5), sealed vials with desiccant, ambient, 30° C./65% RH or 40° C./75% RH) is listed as “at least 4 months”; in data set [1] (stored only in sealed vials, without desiccant), “do not exhibit the extended stability”.

For `Cc1ccc(S(=O)(=O)O)cc1.NC(=O)c1cccc2cn(-c3ccc([C@@H]4CCCNC4)cc3)nc12` [Form III, p-toluenesulfonic acid salt of niraparib], the “form conversion on DVS” value in data set [2] (DVS up to 95% RH) is given as “converted to the monohydrate”. For the same molecule, the “hygroscopicity (DVS curve)” value in data set [2] (DVS) is on record as “very hygroscopic”. Besides, in data set [2] (up to 95% RH), the DVS weight gain entry is given as “approximately 15.8%”.
